This is an account of results in patent US10266497B2 (ABIDE THERAPEUTICS, INC., priority 2017, dated 2019).

Some results are limits rather than exact numbers.

Assay [1] deals with T1, MAGL (Mus musculus, UniProt O35678).
T1 sequence (O35678 1-303): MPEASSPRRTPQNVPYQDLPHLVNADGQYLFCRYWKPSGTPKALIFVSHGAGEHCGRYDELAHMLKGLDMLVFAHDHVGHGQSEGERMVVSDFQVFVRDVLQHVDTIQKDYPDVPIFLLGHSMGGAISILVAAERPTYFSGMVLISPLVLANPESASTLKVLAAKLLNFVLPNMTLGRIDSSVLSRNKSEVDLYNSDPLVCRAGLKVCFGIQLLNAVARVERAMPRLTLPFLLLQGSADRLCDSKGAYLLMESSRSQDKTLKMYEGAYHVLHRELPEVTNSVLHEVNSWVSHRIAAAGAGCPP
Kind of assay: In vitro competitive activity-based protein profiling, MAGL, mouse. To be noted: read-out: MAGL % inh. 1 μM (mouse).

The target of assay [2] is T1, MAGL. Kind of assay: Mouse brain proteomes from inhibitor treated mice (oral gavage, sacrificed 4 h after administration). It counts as in vivo. More on the design: mouse brain membrane fraction for mouse assays; from tissue; host or cells: mouse brain (membrane fraction in vitro; brain proteomes of treated C57Bl/6J mice in vivo). As to conditions: 5 mg/kg oral gavage, brain proteome 4 h after administration, read-out: MAGL % inh. 5 mg/kg (mouse).

The target in assay [3] is T2, FAAH (Mus musculus, UniProt O08914).
T2 sequence (O08914 1-579): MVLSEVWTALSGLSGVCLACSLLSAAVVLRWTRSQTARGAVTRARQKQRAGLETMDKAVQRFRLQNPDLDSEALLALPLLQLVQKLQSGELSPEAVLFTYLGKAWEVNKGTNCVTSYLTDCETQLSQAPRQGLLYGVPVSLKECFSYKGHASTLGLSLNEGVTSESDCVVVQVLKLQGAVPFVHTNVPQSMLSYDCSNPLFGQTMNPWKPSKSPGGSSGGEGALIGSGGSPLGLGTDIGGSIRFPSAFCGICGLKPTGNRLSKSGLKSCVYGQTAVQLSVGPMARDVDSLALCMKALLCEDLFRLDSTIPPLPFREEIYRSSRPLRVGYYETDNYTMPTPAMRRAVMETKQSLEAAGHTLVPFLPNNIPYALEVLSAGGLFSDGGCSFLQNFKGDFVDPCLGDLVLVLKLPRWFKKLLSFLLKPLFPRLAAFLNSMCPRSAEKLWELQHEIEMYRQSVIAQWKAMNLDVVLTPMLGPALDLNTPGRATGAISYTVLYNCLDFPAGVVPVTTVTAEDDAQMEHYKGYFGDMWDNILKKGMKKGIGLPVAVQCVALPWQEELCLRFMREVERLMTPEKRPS
Put plainly: Mouse brain proteomes from inhibitor treated mice (oral gavage, sacrificed 4 h after administration), FAAH. It counts as in vivo. More on the design: mouse brain membrane fraction for mouse assays; from tissue; host or cells: mouse brain (membrane fraction in vitro; brain proteomes of treated C57Bl/6J mice in vivo). As to conditions: 5 mg/kg oral gavage, brain proteome 4 h after administration, read-out: FAAH % inh. 5 mg/kg (mouse).

For assay [4], the target named is T3, MAGL (Homo sapiens, UniProt Q99685).
T3 sequence (Q99685 1-303): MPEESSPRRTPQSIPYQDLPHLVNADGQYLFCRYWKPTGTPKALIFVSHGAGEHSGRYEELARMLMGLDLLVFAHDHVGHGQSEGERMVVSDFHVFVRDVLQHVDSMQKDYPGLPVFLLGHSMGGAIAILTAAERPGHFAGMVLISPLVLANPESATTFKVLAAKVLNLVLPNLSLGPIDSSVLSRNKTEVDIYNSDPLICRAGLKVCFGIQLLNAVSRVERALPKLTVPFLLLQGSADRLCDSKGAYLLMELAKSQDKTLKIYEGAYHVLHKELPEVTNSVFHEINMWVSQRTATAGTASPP
Kind of assay: In vitro competitive activity-based protein profiling, MAGL, human. As to conditions: read-out: MAGL % inh. 1 μM (human).

Assay [5] addresses T4, FAAH (Homo sapiens, UniProt O00519).
T4 sequence (O00519 1-579): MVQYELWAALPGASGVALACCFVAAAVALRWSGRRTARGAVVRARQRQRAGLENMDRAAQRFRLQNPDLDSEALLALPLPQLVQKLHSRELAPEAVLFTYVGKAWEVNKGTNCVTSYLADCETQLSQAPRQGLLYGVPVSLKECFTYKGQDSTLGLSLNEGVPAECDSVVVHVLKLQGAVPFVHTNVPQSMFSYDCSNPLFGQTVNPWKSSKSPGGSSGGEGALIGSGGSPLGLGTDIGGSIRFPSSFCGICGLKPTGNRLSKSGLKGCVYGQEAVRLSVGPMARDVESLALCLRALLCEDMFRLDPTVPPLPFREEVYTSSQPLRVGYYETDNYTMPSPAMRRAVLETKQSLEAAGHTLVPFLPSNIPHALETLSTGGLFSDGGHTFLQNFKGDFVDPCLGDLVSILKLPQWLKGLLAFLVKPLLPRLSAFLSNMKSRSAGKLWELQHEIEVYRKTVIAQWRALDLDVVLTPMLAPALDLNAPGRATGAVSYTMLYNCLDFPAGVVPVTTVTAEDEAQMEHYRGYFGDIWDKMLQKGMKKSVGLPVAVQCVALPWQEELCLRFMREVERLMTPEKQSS
Kind of assay: In vitro competitive activity-based protein profiling, FAAH, human. As to conditions: for inhibition at 1 µM: read-out: FAAH % inh. 1 μM (human).

For assay [6], the target named is T2, FAAH. Put plainly: In vitro competitive activity-based protein profiling, FAAH, mouse. As to conditions: read-out: FAAH % inh. 1 μM (mouse).

In the case of `O=C(O)c1ccn(C(=O)N2CCN(Cc3ccc(C(F)(F)F)cc3N3CCCC3)CC2)n1` [Example 83, 1-(4-(2-(pyrrolidin-1-yl)-4-(trifluoromethyl)benzyl)piperazine-1-carbonyl)-1H-pyrazole-3-carboxylic acid], the inhibition at 1 µM is greater than 75% on MAGL [1], greater than 75% at MAGL [4], 0 to 25% at FAAH [5] and 0 to 25% at FAAH [6]. Further, the inhibition at 5 mg/kg on MAGL [2] and on FAAH [3] was 0 to 25% each time. For the same compound, the IC50 (in general, the concentration that gives 50% inhibition) at FAAH [5] was 1000 to 10000 nM.
As to `Cc1c(CO[C@H]2C[C@@H]3CN(C(=O)n4ccc(C(=O)O)n4)C[C@@H]3C2)cccc1C(F)(F)F` [Example 159, 1-(trans-5-((2-methyl-3-(trifluoromethyl)benzyl)oxy)octa-hydrocyclopenta[c]pyrrole-2-carbonyl)-1H-pyrazole-3-carboxylic acid], the inhibition at 1 µM at MAGL [1], at MAGL [4], at FAAH [5] and on FAAH [6] was greater than 75% in each case. Besides, the inhibition at 5 mg/kg at MAGL [2] and at FAAH [3] was 0 to 25% in each case. This compound also had an IC50 on FAAH [5] of 100 to 1000 nM.
On to `Cc1cn(C(=O)N2CCC3(CC2)CN(Cc2ccc(C(F)(F)F)cc2N2CCCC2)C3)nc1C(=O)O` [Example 135, 4-methyl-1-(2-(2-(pyrrolidin-1-yl)-4-(trifluoromethyl)benzyl)-2,7-diazaspiro[3.5]non-ane-7-carbonyl)-1H-pyrazole-3-carboxylic acid], for which the inhibition at 1 µM on MAGL [1] is greater than 75%; at MAGL [4], greater than 75%; at FAAH [5], 0 to 25%; at FAAH [6] it was 0 to 25%. Besides, the inhibition at 5 mg/kg at MAGL [2] and at FAAH [3] was 0 to 25% in each case.
As for `Cc1cn(C(=O)N2CCC3(CCN(Cc4cc(Cl)ccc4C(F)(F)F)C3)CC2)nc1C(=O)O` [Example 130, 1-(2-(5-chloro-2-(trifluoromethyl)benzyl)-2,8-diazaspiro[4.5]decane-8-carbonyl)-4-methyl-1H-pyrazole-3-carboxylic acid], the inhibition at 1 µM at MAGL [1] was greater than 75%; on MAGL [4], greater than 75%; on FAAH [5], 50 to 75%; on FAAH [6], 50 to 75%. Moreover, the inhibition at 5 mg/kg on MAGL [2] and at FAAH [3] was 0 to 25% in each case. Besides, on FAAH [5], the IC50 was 100 to 1000 nM.
As for `O=C(O)c1ccn(C(=O)N2CCN(Cc3ccc(C(F)(F)F)cc3Cl)CC2)n1` [Example 91, 1-(4-(2-chloro-4-(trifluoromethyl)benzyl)piperazine-1-carbonyl)-1H-pyrazole-3-carboxylic acid], the inhibition at 1 µM at MAGL [1] is greater than 75%; at MAGL [4] it was greater than 75%; at FAAH [5], 0 to 25%; on FAAH [6], 0 to 25%. Besides, the inhibition at 5 mg/kg on MAGL [2] and at FAAH [3] was 0 to 25% each time.
Regarding `O=C(O)c1ccn(C(=O)N2CCC(Oc3ccc(Cl)c(N4CCCC4)c3)CC2)n1` [Example 121, 1-(4-(4-chloro-3-(pyrrolidin-1-yl)phenoxy)piperidine-1-carbonyl)-1H-pyrazole-3-carboxylic acid], the inhibition at 1 µM on MAGL [1] is greater than 75%; on MAGL [4] it was greater than 75%; at FAAH [5] it was 0 to 25%; at FAAH [6], 0 to 25%. In addition, the inhibition at 5 mg/kg at MAGL [2] and on FAAH [3] was 0 to 25% throughout.
With `O=C(O)c1ccn(C(=O)N2CCN(Cc3cccc(C(F)(F)F)c3N3CCCC3)CC2)n1` [Example 90, 1-(4-(2-(pyrrolidin-1-yl)-3-(trifluoromethyl)benzyl)piperazine-1-carbonyl)-1H-pyrazole-3-carboxylic acid], the inhibition at 1 µM is greater than 75% at MAGL [1], greater than 75% on MAGL [4], 0 to 25% on FAAH [5] and 0 to 25% on FAAH [6]. Besides, the inhibition at 5 mg/kg at MAGL [2] and on FAAH [3] was 0 to 25% each time.
`O=C(O)c1ccn(C(=O)N2CCN(Cc3cc4cc(Cl)ccc4s3)CC2)n1` [Example 187, 1-(4-((5-chlorobenzo[b]thio-phen-2-yl)methyl)piperazine-1-carbonyl)-1H-pyrazole-3-carboxylic acid]: the inhibition at 1 µM was greater than 75% at MAGL [1], greater than 75% at MAGL [4], 25 to 50% at FAAH [5] and 0 to 25% on FAAH [6]. Also, the inhibition at 5 mg/kg on MAGL [2] and on FAAH [3] was 0 to 25% each time.
On to `O=C(O)c1ccn(C(=O)N2CCN(Cc3cccc(Oc4ccc(F)cc4)c3)CC2)n1` [Example 51, 1-(4-(3-(4-fluorophenoxy)benzyl)piperazine-1-carbonyl)-1H-pyrazole-3-carboxylic acid], for which the inhibition at 1 µM is greater than 75% on MAGL [1], greater than 75% at MAGL [4], 50 to 75% on FAAH [5] and 0 to 25% on FAAH [6]. Besides, the inhibition at 5 mg/kg at MAGL [2] and at FAAH [3] was 0 to 25% each time. This compound also came in with an IC50 on FAAH [5] of 100 to 1000 nM.
As to `O=C(O)c1ccn(C(=O)N2CCN(Cc3ccc(C(F)(F)F)cc3N3CC[C@H](F)C3)CC2)n1` [Example 92, (S)-1-(4-(2-(3-fluoropyrrolidin-1-yl)-4-(trifluoromethyl)benzyl)-piperazine-1-carbonyl)-1H-pyrazole-3-carboxylic acid], the inhibition at 1 µM at MAGL [1] was greater than 75%; at MAGL [4], greater than 75%; at FAAH [5] it was 0 to 25%; at FAAH [6], 0 to 25%. Also, the inhibition at 5 mg/kg on MAGL [2] and at FAAH [3] was 0 to 25% throughout. Further, the IC50 at FAAH [5] was 1000 to 10000 nM.
Turning to `O=C(O)c1ccn(C(=O)N2CCN(Cc3ccc(C(F)(F)F)cc3N3CC4COCC4C3)CC2)n1` (centres unmarked) [Example 106, 1-(4-(2-(tetrahydro-1H-furo[3,4-c]pyrrol-5(3H)-yl)-4-(trifluoromethyl)benzyl)piperazine-1-carbonyl)-1H-pyrazole-3-carboxylic acid], the inhibition at 1 µM at MAGL [1] is greater than 75%; on MAGL [4] it was greater than 75%; on FAAH [5] it was 0 to 25%; on FAAH [6] it was 0 to 25%. In addition, the inhibition at 5 mg/kg on MAGL [2] and on FAAH [3] was 0 to 25% throughout.
